# Target: T1, HIS-KRAS (G12C, aa 2-185) (Homo sapiens, UniProt P01116, G12C)
# T1 construct: HIS-KRAS (G12C, aa 2-185, Sino biological); purchased Sino biological
# Test: SOS1 catalyzed nucleotide exchange assay (TR-FRET)
# Type: biochemical
# Conditions: GDP-loaded HIS-KRAS (G12C) pre-incubated with compound 1 hour, SOS1 ExD and BODIPY FL GTP added, 4 hours at 25° C.
# Experimental: HIS-KRAS (G12C, aa 2-185, Sino biological) was diluted to 5 μM in EDTA buffer (20 mM HEPES, pH 7.4, 50 mM NaCl, 10 mM EDTA, 0.01% (v/v) Tween-20) and incubated for 30 min at 25° C. The EDTA pretreated HIS-KRAS (G12C) was diluted to 12 nM in assay buffer (25 mM HEPES, pH 7.4, 120 mM NaCl, 5 mM MgCl2, 1 mM DTT, 0.01% (v/v) Tween 20, 0.1% (w/v) BSA) containing 120 nM GDP (Sigma) and MAb Anti 6HIS-Tb cryptate Gold (Cisbio) and incubated for 1 hour at 25° C. to prepare GDP-loaded HIS-KRAS (G12C). The GDP-loaded HIS-KRAS (G12C) was pre-incubation with diluted compounds in a 384-well plate (Greiner) for 1 hour, then purified SOS1 ExD (Flag tag, aa 564-1049) and BODIPY™ FL GTP (Invitrogen) were added to the assay wells (Final concentration: 3 nM HIS-KRAS (G12C), 2 μM SOS1 ExD, 80 nM BODIPY™ FL GTP, 21 ng/mL MAb Anti 6HIS-Tb cryptate Gold) and incubated for 4 hours at 25° C. TR-FRET signals were then read on Tecan Spark multimode microplate reader. The parameters were F486: Excitation 340 (35) nm, Emission 486 (10) nm, Lag time 100 las, Integration time 200 las; F515: Excitation 340 (35) nm, Emission 515 (10) nm, Lag time 100 las, Integration time 200 las. TR-FRET ratios for each individual wells were calculated by equation: TR-FRET ratio=(Signal F515/Signal F486)*10000. Then the data were analyzed using a 4-parameter logistic model to calculate IC50 values.
# T1 sequence (P01116 2-185 isoform P01116-2 G12C): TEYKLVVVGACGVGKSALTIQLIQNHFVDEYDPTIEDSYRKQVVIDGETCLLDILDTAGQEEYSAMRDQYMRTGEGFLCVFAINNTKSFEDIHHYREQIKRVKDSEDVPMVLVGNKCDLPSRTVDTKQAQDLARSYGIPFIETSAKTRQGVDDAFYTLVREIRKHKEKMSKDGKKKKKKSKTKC
row,Structure (SMILES),IC50 [µM]
1,"C=CC(=O)N1CCN(c2c(C#N)c(OC[C@@H]3CCCN3C)nc3c2CCN(c2cccc4cccc(C)c24)C3)CC1CC#N (stereo partly drawn) [Compound 1, 4-(4-acryloyl-3-(cyanomethyl)piperazin-1-yl)-7-(8-methylnaphthalen-1-yl)-2-(((S)-1-methylpyrrolidin-2-yl)methoxy)-5,6,7,8-tetrahydro-1,7-naphthyridine-3-carbonitrile]",0.0531
2,"C=CC(=O)N1CCN(c2c(C#N)c(OC[C@@H]3CCCN3C)nc3c2CCN(c2cccc4cccc(C)c24)C3)CC1 [Compound 2, (S)-4-(4-acryloylpiperazin-1-yl)-7-(8-methylnaphthalen-1-yl)-2-((1-methylpyrrolidin-2-yl)methoxy)-5,6,7,8-tetrahydro-1,7-naphthyridine-3-carbonitrile]",> 1
3,"C=CC(=O)N1[C@H](C)CN(c2c(C#N)c(OC[C@@H]3CCCN3C)nc3c2CCN(c2cccc4cccc(C)c24)C3)C[C@@H]1C [Compound 3, 4-((3S,5R)-4-acryloyl-3,5-dimethylpiperazin-1-yl)-7-(8-methylnaphthalen-1-yl)-2-(((S)-1-methylpyrrolidin-2-yl)methoxy)-5,6,7,8-tetrahydro-1,7-naphthyridine-3-carbonitrile]",> 1
4,"C=CC(=O)N1CC(Nc2c(C#N)c(OC[C@@H]3CCCN3C)nc3c2CCN(c2cccc4cccc(C)c24)C3)C1 [Compound 4, (S)-4-((1-acryloylazetidin-3-yl)amino)-7-(8-methylnaphthalen-1-yl)-2-((1-methylpyrrolidin-2-yl)methoxy)-5,6,7,8-tetrahydro-1,7-naphthyridine-3-carbonitrile]",> 1
5,"C=CC(=O)N1CCN(c2c(C#N)c(OC[C@@H]3CCCN3C)nc3c2CCN(c2cccc4cccc(C)c24)C3)C[C@H]1C [Compound 5, 4-((R)-4-acryloyl-3-methylpiperazin-1-yl)-7-(8-methylnaphthalen-1-yl)-2-(((S)-1-methylpyrrolidin-2-yl)methoxy)-5,6,7,8-tetrahydro-1,7-naphthyridine-3-carbonitrile]",> 1
6,"C=CC(=O)N1CCN(c2c(C#N)c(OC[C@@H]3CCCN3C)nc3c2CCN(c2cccc4cccc(C)c24)C3)C[C@@H]1C [Compound 6, 4-((S)-4-acryloyl-3-methylpiperazin-1-yl)-7-(8-methylnaphthalen-1-yl)-2-(((S)-1-methylpyrrolidin-2-yl)methoxy)-5,6,7,8-tetrahydro-1,7-naphthyridine-3-carbonitrile]",> 1
